Reference: patent US20170290774A1, “NEUROKININ-1 RECEPTOR ANTAGONIST COMPOSITION FOR TREATMENT OF DISEASES AND CONDITIONS OF THE RESPIRATORY TRACT” (PLUS VITECH, S.L., priority 2014, published 2017)

Tested on: MMP-9
Assay: Immunohistochemistry of MMP-9 in respiratory tract tissue of sodium hypochlorite aerosol-treated rabbits
Assay type: in vivo, New Zealand albino rabbits
Excerpt: It is known that the factors TGF-α, TGF-β 1, TGF-β 2, TGF-β 3, SPARC, MMP-3; MMP-7, MMP-9, MMP-11, MMP-13 and MMP-14, TGF-β, NF-kB, EGF, MMP-9, VEGF and TNF-α which are produced by lung cells (pneumocytes, fibroblasts and vascular endothelial cells) and inflammatory cells (macrophages, lymphocytes and polymorphonuclear leukocytes) are involved in the pathophysiology and development of said respiratory tract diseases. […] Herein, 27 New Zealand albino rabbits (New Zealand White Rabbit) with an initial average weight about 3 kg were used in this example. All subjects were administered an aerosol of a solution consisting of a mixture of water and sodium hypochlorite (35 g sodium hypochlorite per liter of water) at a rate of 5 mL of said solution by inhalation three times a day for 7 days (days 1 to 7 of experimentation). Subsequently, from days 3 to 7, a group of 3 rabbits (Group 1) was administered an oral dose of 10 mg/kg body weight per day, another group of 3 rabbits (Group 2) was administered an oral dose of 40 mg/kg body weight per day, a third group (Group 3) was administered an oral dose of 80 mg/kg body weight per day and a fourth group (Group 4) was administered an oral dose of 100 mg/kg body weight per day. […] This mixture was administered as an aerosol by inhalation, also from days 3 to 7, to a group of 3 rabbits (group 5) at a dose of 0.05 mg/kg body weight per day, to another group of three rabbits (Group 6) at a dose of 0.1 mg/kg body weight per day, to another group of three rabbits (Group 7) at a dose of 0.2 mg/kg body weight per day and to another group of three rabbits (Group 8) at a dose of 0.4 mg/kg body weight per day. A placebo consisting only of olive oil was administered from days 3 to 7 to a control group of 3 rabbits (placebo group). In parallel, 3 rabbits were kept under identical conditions but were not administered any treatment nor the aforementioned sodium hypochlorite solution (control group). […] On day 7 of the experiment all animals were euthanized and necropsied. […] Samples were taken at the peripheral level of the lung parenchyma, just below the pleural surface. Tissue samples were also taken from the nasal cavity, pharynx, larynx and bronchi. Immunohistochemistry studies were performed for all samples to evaluate the levels of the markers TGF-α, TGF-β 1, TGF-β 2, TGF-β 3 SPARC, MMP-3; MMP-7, MMP-9, MMP-11, MMP-14, TGF-β, TNF-α and VEGF. In said immunohistochemistry studies, a sample of each sample was dehydrated by treatment with increasing concentrations of ethanol and finally xylene. Subsequently said dried samples were embedded in paraffin, thus creating a block. Said paraffin blocks were cut on a microtome to a thickness of 5 μm, and the resulting sections (slices) were placed on slides suitable for conducting immunohistochemistry techniques. Subsequently, the sections were deparaffinised by immersion in xylene and then rehydrated through immersion in a series of solutions containing decreasing concentrations of ethanol and, finally, water. […] The samples were then allowed to cool to room temperature over 10 minutes. Endogenous peroxidase activity was blocked by treatment with 3% hydrogen peroxide over 30 min at room temperature. […] In order to verify the expression of NK1 receptors, the cell samples were incubated in the presence of anti-NK1 antibodies ([…], Sigma-Aldrich) diluted 1:1000 at 4° C. overnight. After this time they were washed in 0.05M Tris buffer at room temperature. Subsequently, Envision System-HRP (Dako) reagents were added for 30 min at room temperature. Once this time had expired, the samples were again washed with 0.05 M Tris buffer, and immunoreactivity was visualized by light microscopy with a chromogenic solution with 3,3'-diaminobenzidine (DAB+; Dako, USA). In order to differentiate the cell nuclei, these were lightly stained with haematoxylin. Samples that were not incubated with the primary antibody, but wherein this was replaced by a non-immune serum were used as negative controls. […]

C[C@@H](OC1OCCN(Cc2nc(=O)[nH][nH]2)C1c1ccc(F)cc1)c1cc(C(F)(F)F)cc(C(F)(F)F)c1 (stereo in doubt) [Aprepitant, 5-([(2R,3S)-2-((R)-1-[3,5-bis(trifluoromethyl)phenyl]ethoxy)-3-(4-fluorophenyl)morpholino]methyl)-1H-1,2,4-triazol-3(2H)-one]
Percent increase in MMP-9 with respect to the control group (bronchial tissue, Group 1, oral 10 mg/kg per day): 749.34%
Percent increase in MMP-9 with respect to the control group (bronchial tissue, Group 2, oral 40 mg/kg per day): 672.94%
Percent increase in MMP-9 with respect to the control group (bronchial tissue, Group 3, oral 80 mg/kg per day): 495.87%
Percent increase in MMP-9 with respect to the control group (bronchial tissue, Group 4, oral 100 mg/kg per day): 305.34%
% Med G5/C: percent increase in marker MMP-9 with respect to the control group (bronchial tissue, Group 5): 673.45%
% Med G6/C: percent increase in marker MMP-9 with respect to the control group (bronchial tissue, Group 6): 452.61%
% Med G7/C: percent increase in marker MMP-9 with respect to the control group (bronchial tissue, Group 7): 325.54%
% Med G8/C: percent increase in marker MMP-9 with respect to the control group (bronchial tissue, Group 8): 153.34%
Percent increase in MMP-9 with respect to the control group (laryngeal tissue, Group 1, oral 10 mg/kg per day): 1,290.89%
Percent increase in MMP-9 with respect to the control group (laryngeal tissue, Group 2, oral 40 mg/kg per day): 983.98%
Percent increase in MMP-9 with respect to the control group (laryngeal tissue, Group 3, oral 80 mg/kg per day): 898.18%
Percent increase in MMP-9 with respect to the control group (laryngeal tissue, Group 4, oral 100 mg/kg per day): 788.78%
Percent increase in MMP-9 with respect to the control group (laryngeal tissue, Group 5, inhalation 0.05 mg/kg per day): 989.34%
Percent increase in MMP-9 with respect to the control group (laryngeal tissue, Group 6, inhalation 0.1 mg/kg per day): 567.37%
Percent increase in MMP-9 with respect to the control group (laryngeal tissue, Group 7, inhalation 0.2 mg/kg per day): 256.47%
Percent increase in MMP-9 with respect to the control group (laryngeal tissue, Group 8, inhalation 0.4 mg/kg per day): 123.23%
Percent increase in MMP-9 with respect to the control group (lung tissue, Group 1, oral 10 mg/kg per day): 566.19%
Percent increase in MMP-9 with respect to the control group (lung tissue, Group 2, oral 40 mg/kg per day): 384.44%
Percent increase in MMP-9 with respect to the control group (lung tissue, Group 3, oral 80 mg/kg per day): 338.57%
Percent increase in MMP-9 with respect to the control group (lung tissue, Group 4, oral 100 mg/kg per day): 326.02%
Percent increase in MMP-9 with respect to the control group (lung tissue, Group 5, inhalation 0.05 mg/kg per day): 570.94%
Percent increase in MMP-9 with respect to the control group (lung tissue, Group 6, inhalation 0.1 mg/kg per day): 267.29%
Percent increase in MMP-9 with respect to the control group (lung tissue, Group 7, inhalation 0.2 mg/kg per day): 183.98%
Percent increase in MMP-9 with respect to the control group (lung tissue, Group 8, inhalation 0.4 mg/kg per day): 156.83%
Percent increase in MMP-9 with respect to the control group (nasal cavity tissue, Group 1, oral 10 mg/kg per day): 1,355.64%
Percent increase in MMP-9 with respect to the control group (nasal cavity tissue, Group 2, oral 40 mg/kg per day): 768.75%
Percent increase in MMP-9 with respect to the control group (nasal cavity tissue, Group 3, oral 80 mg/kg per day): 511.58%
Percent increase in MMP-9 with respect to the control group (nasal cavity tissue, Group 4, oral 100 mg/kg per day): 328.92%
Percent increase in MMP-9 with respect to the control group (nasal cavity tissue, Group 5, inhalation 0.05 mg/kg per day): 1,289.77%
Percent increase in MMP-9 with respect to the control group (nasal cavity tissue, Group 6, inhalation 0.1 mg/kg per day): 588.48%
Percent increase in MMP-9 with respect to the control group (nasal cavity tissue, Group 7, inhalation 0.2 mg/kg per day): 291.36%
Percent increase in MMP-9 with respect to the control group (nasal cavity tissue, Group 8, inhalation 0.4 mg/kg per day): 143.08%
Percent increase in MMP-9 with respect to the control group (pharyngeal tissue, Group 1, oral 10 mg/kg per day): 1,102.28%
Percent increase in MMP-9 with respect to the control group (pharyngeal tissue, Group 2, oral 40 mg/kg per day): 945.34%
Percent increase in MMP-9 with respect to the control group (pharyngeal tissue, Group 3, oral 80 mg/kg per day): 789.45%
Percent increase in MMP-9 with respect to the control group (pharyngeal tissue, Group 4, oral 100 mg/kg per day): 561.21%
Percent increase in MMP-9 with respect to the control group (pharyngeal tissue, Group 5, inhalation 0.05 mg/kg per day): 998.67%
Percent increase in MMP-9 with respect to the control group (pharyngeal tissue, Group 6, inhalation 0.1 mg/kg per day): 505.32%
Percent increase in MMP-9 with respect to the control group (pharyngeal tissue, Group 7, inhalation 0.2 mg/kg per day): 212.24%
Percent increase in MMP-9 with respect to the control group (pharyngeal tissue, Group 8, inhalation 0.4 mg/kg per day): 121.23%
